Reference: patent US20250339547A1, “MET BCL-XL INHIBITOR ANTIBODY-DRUG CONJUGATES AND METHODS OF USE THEREOF” (Novartis AG, priority 2022, published 2025)

Experiments:
H1650 cells = assay: In vitro activity in H1650 cell line (3D, CTG 120h), Example 6; type: cell-based; settings: Homo sapiens, NCI-H1650, 120 h, H1650 3D
Description: H1650 cells were cultivated in RPMI supplemented with 10% heat inactivated fetal bovine serum, penicillin (100 IU/ml), streptomycin (100 μg/ml) and L-glutamine (2 mM). Cells were cultured at 37° C. in a humidified atmosphere containing 5% CO2. Cells were seeded in 96 microwell round bottom plates (96 microwell low attachment plates, Costar reference 7007; 75 μL/well of 125000 cells/mL) and exposed to the mAbs or ADCs for 120h (serially diluted; 9 concentrations each, duplicates). Effects of mAbs or ADCs on cell viability were assessed after 5 days of incubation at 37° C./5% CO2 by quantification of cellular ATP levels using CellTiterGlo at 75 μL reagent/well. All the conditions were tested in duplicates. Luminescence was quantified on a multipurpose plate reader. IC50s were calculated using standard four-parametric curve fitting. IC50 is defined as the compound concentration at which the CTG signal is reduced to 50% of that measured for the control. Two independent experiments were performed (N1 and N2). IC50 data of each experiment and the arithmetic mean is shown in Table 14 for all the antibodies and ADCs tested. NT=not tested; ND=not determined.

EBC-1 = assay: In vitro activity in EBC-1 cell line (CTG 120h), Example 12; type: cell-based; settings: Homo sapiens, EBC-1, 120 h, EBC1, CTG 120 h
Description: EBC-1 and SNU-5 cell lines were cultured in the media described above at 37° C. in a humidified atmosphere containing 5% CO2. The cells were seeded in 96 well clear bottom plates (96 well clear-bottom, white, Corning reference 3903) and exposed to the mAbs or ADCs for 120h (serially diluted; 9 concentrations each, triplicates). Effects of mAbs or ADCs on cell viability were assessed after 5 days of incubation at 37° C./5% CO2 by quantification of cellular ATP levels using CellTiter-Glo reagent (Promega Ref: G7571) at 75 μL reagent/well. All the conditions were tested in triplicates. Luminescence was quantified on a multipurpose plate reader. IC50s were calculated using standard four-parametric curve fitting. IC50 is defined as the compound concentration at which the CTG signal is reduced to 50% of that measured for the control. Two independent experiments were performed (N1 and N2).
Plating Conditions: EBC-1: 75 μL/well of 60000 cells/mL for 120h in 96-well plate SNU-5: 75 μL/well of 60000 cells/mL for 120h in 96-well plate H1650 (ATOC): 75 μL/well of 125000 cells/mL for 120h in 96 microwell round bottom plates

## Cc1c(Nc2nc3ccccc3s2)nnc2c1CCCN2c1ccc(-c2cnn(C[C@]34C[C@]5(C)C[C@](C)(C3)C[C@@](OCCNCCCO)(C5)C4)c2C)c(C(=O)O)n1 [P25, 6-[3-(1,3-benzothiazol-2-ylamino)-4-methyl-6,7-dihydro-5H-pyrido[2,3-c]pyridazin-8-yl]-3-[1-[[3-[2-(3-hydroxypropylamino)ethoxy]-5,7-dimethyl-1-adamantyl]methyl]-5-methyl-pyrazol-4-yl]pyridine-2-carboxylic acid]
H1650 cells; mean
  IC50: 1.57 nM
H1650 cells; n = 1
  IC50: 1.47 nM
H1650 cells; n = 2
  IC50: 1.66 nM
EBC-1; Mean
  IC50: 12.6 nM
EBC-1; N1
  IC50: 12.8 nM
EBC-1; N2
  IC50: 12.4 nM
